Results published in patent US7683089B1, “4-(Phenylmethyl and substituted phenylmethyl)-imidazole-2-thiones acting as specific alpha2 adrenergic agonists” (Allergan, Inc, priority 2004, dated 2010).

Tests used:
[1] = molecular target: T1, alpha2A adrenergic receptor (Homo sapiens, UniProt P08913); assay: Receptor Selection and Amplification Technology (RSAT) assay, alpha2A; type: cell-based; conditions: RSAT in NIH-3T3 cells; ratio of maximal effect of drug to that of standard full agonist brimonidine (UK14304); NA = not active at concentrations less than 10 micromolar
T1 construct: expressed in transfected cells; host or cells: NIH-3T3 cells
T1 sequence (P08913 1-465): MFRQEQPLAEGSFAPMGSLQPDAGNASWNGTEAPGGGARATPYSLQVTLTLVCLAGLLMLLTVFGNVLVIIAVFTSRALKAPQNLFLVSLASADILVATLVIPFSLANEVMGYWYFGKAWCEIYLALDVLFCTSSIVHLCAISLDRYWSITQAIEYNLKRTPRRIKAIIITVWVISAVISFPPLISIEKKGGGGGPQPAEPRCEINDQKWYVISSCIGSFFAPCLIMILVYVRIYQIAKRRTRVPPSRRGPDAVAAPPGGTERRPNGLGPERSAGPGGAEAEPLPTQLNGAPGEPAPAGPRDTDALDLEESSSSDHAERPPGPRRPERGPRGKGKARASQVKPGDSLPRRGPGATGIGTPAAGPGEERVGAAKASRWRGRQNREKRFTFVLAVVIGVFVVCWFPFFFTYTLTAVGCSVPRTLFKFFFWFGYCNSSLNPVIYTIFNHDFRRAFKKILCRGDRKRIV
Description: (§1) The imidazole-2-thione compounds of the invention are agonists of alpha2 adrenergic receptors. […] Al., 1995, Pharmacol. Toxicol. 76, pp. 308-311 (incorporated herein by reference) and is also described below. Another reference pertinent to this assay is Conklin et al. (1993) Nature 363:274-6, also incorporated herein by reference.
(§2) Receptor Selection and Amplification Technology (RSAT) Assay
(§3) The RSAT assay measures a receptor-mediated loss of contact inhibition that results in selective proliferation of receptor-containing cells in a mixed population of confluent cells. The increase in cell number is assessed with an appropriate transfected marker gene such as β-galactosidase, the activity of which can be easily measured in a 96-well format. Receptors that activate the G protein, Gq, elicit this response. Alpha2 receptors, which normally couple to Gi, activate the RSAT response when coexpressed with a hybrid Gq protein that has a Gi receptor recognition domain, called Gq/i5.
(§4) NIH-3T3 cells are plated at a density of 2×10^6 cells in 15 cm dishes and maintained in Dulbecco's modified Eagle's medium supplemented with 10% calf serum. One day later, cells are cotransfected by calcium phosphate precipitation with mammalian expression plasmids encoding p-SV-β-galactosidase (5-10 μg), receptor (1-2 μg) and G protein (1-2 μg). 40 μg salmon sperm DNA may also be included in the transfection mixture. […] After washing with phosphate-buffered saline, β-galactosidase enzyme activity is determined by adding 200 μl of the chromogenic substrate (consisting of 3.5 mM o-nitrophenyl-β-D-galactopyranoside and 0.5% nonidet P-40 in phosphate buffered saline), incubating overnight at 30° C. and measuring optical density at 420 nm. The absorbance is a measure of enzyme activity, which depends on cell number and reflects a receptor-mediated cell proliferation. The efficacy or intrinsic activity is calculated as a ratio of the maximal effect of the drug to the maximal effect of a standard full agonist for each receptor subtype. […]

[2] = molecular target: T2, alpha2B adrenergic receptor (Homo sapiens, UniProt P18089); assay: Receptor Selection and Amplification Technology (RSAT) assay, alpha2B; type: cell-based; conditions: RSAT in NIH-3T3 cells; ratio of maximal effect of drug to that of standard full agonist brimonidine (UK14304); NA = not active at concentrations less than 10 micromolar
T2 construct: expressed in transfected cells; host or cells: NIH-3T3 cells
T2 sequence (P18089 1-450): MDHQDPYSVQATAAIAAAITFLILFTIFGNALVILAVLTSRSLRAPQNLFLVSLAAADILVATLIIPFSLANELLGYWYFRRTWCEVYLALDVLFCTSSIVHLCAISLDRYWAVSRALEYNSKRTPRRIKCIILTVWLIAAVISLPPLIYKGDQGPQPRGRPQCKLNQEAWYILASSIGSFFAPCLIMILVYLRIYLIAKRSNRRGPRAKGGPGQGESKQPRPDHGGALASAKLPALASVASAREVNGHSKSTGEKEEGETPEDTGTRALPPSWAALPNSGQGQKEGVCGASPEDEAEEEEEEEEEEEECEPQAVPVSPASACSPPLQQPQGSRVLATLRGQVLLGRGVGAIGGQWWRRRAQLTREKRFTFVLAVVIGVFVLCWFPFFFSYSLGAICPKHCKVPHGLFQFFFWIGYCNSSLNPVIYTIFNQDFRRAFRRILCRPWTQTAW
Description: as §1, §2, §3
NIH-3T3 cells are plated at a density of 2×10^6 cells in 15 cm dishes and maintained in Dulbecco's modified Eagle's medium supplemented with 10% calf serum. One day later, cells are cotransfected by calcium phosphate precipitation with mammalian expression plasmids encoding p-SV-β-galactosidase (5-10 μg), receptor (1-2 μg) and G protein (1-2 μg). 40 μg salmon sperm DNA may also be included in the transfection mixture. Fresh media is added on the following day and 1-2 days later, cells are harvested and frozen in 50 assay aliquots. Cells are thawed and 100 μl added to 100 μl aliquots of various concentrations of drugs in triplicate in 96-well dishes. Incubations continue 72-96 hr at 37° C. After washing with phosphate-buffered saline, β-galactosidase enzyme activity is determined by adding 200 μl of the chromogenic substrate (consisting of 3.5 mM o-nitrophenyl-β-D-galactopyranoside and 0.5% nonidet P-40 in phosphate buffered saline), incubating overnight at 30° C. and measuring optical density at 420 nm. The absorbance is a measure of enzyme activity, which depends on cell number and reflects a receptor-mediated cell proliferation. The efficacy or intrinsic activity is calculated as a ratio of the maximal effect of the drug to the maximal effect of a standard full agonist for each receptor subtype. […]
The RSAT assay measures a receptor-mediated loss of contact inhibition that results in selective proliferation of receptor-containing cells in a mixed population of confluent cells. The increase in cell number is assessed with an appropriate transfected marker gene such as ∃-galactosidase, the activity of which can be easily measured in a 96-well format. […]

[3] = molecular target: T3, alpha2C adrenergic receptor (Homo sapiens, UniProt P18825); assay: Receptor Selection and Amplification Technology (RSAT) assay, alpha2C; type: cell-based; conditions: RSAT in NIH-3T3 cells; ratio of maximal effect of drug to that of standard full agonist brimonidine (UK14304); NA = not active at concentrations less than 10 micromolar
T3 construct: expressed in transfected cells; host or cells: NIH-3T3 cells
T3 sequence (P18825 1-462): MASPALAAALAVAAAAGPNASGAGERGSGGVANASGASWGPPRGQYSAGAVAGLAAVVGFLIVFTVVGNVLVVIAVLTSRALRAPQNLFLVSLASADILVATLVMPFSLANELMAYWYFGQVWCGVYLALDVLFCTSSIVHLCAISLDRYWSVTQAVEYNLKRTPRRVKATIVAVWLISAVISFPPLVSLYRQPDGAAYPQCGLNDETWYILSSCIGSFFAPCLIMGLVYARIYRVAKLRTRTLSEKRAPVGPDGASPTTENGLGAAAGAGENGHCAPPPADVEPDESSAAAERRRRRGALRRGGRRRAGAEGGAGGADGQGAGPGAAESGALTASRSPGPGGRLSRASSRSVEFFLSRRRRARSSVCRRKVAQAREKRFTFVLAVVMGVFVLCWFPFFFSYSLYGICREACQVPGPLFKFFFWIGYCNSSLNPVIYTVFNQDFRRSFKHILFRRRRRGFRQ
Description: as §1, §2, §3, §4

male Sprague-Dawley rats = assay: Sedative activity (exploratory behavior/locomotor skills); type: in vivo, rat; conditions: intraperitoneally, up to a dose of 1 mg/kg, 30 minutes after injection
Protocol: To test sedation, six male Sprague-Dawley rats are given up to 3 mg/kg of the test compound in a saline or DMSO vehicle by intraperitoneal injection (i.p.). Sedation is graded 30 minutes following administration of the drug by monitoring locomotor skills as follows.
The Sprague-Dawley rats are weighed and 1 ml/kg body weight of an appropriate concentration (ie. 3 mg/ml for a final dose of 3 mg/kg) drug solution is injected intraperitoneally. Typically the test compound is formulated in approximately 10 to 50% DMSO. The results are compared to controls that are injected with 1 ml/kg saline or 10 to 50% DMSO. Rat activity is then determined 30 minutes after injection of the drug solution. Rats are placed in a dark covered chamber and a digicom analyzer (Omnitech Electronic) quantitates their exploratory behavior for a five-minute period. The machine records each time the rat interrupts an array of 32 photoelectric beams in the X and Y orientation.

Compound: CC(c1c[nH]c(=S)[nH]1)c1cccc(Cl)c1Cl (stereo not drawn) [Compound 1, 4-[1-(2,3-dichloro-phenyl)-ethyl]-1,3-dihydro-imidazole-2-thione]
- Intrinsic Activity Alpha 2A [1]: 0.87
- Intrinsic Activity Alpha 2B [2]: 0.85
- Intrinsic Activity Alpha 2C [3]: 1.03
- sedative effect (male Sprague-Dawley rats): no sedative effect

Compound: CC(c1c[nH]c(=S)[nH]1)c1cccc(C(F)(F)F)c1F (stereo not drawn) [Compound 3, 4-[1-(2-fluoro-3-trifluoromethyl-phenyl)-ethyl]-1,3-dihydro-imidazole-2-thione]
- Intrinsic Activity Alpha 2A [1]: 0.88
- Intrinsic Activity Alpha 2B [2]: 1.04
- Intrinsic Activity Alpha 2C [3]: 0.84
- sedative effect (male Sprague-Dawley rats): no sedative effect

Compound: CC(c1c[nH]c(=S)[nH]1)c1cccc(F)c1F (stereo not drawn) [Compound 2, 4-[1-(2,3-difluoro-phenyl)-ethyl]-1,3-dihydro-imidazole-2-thione]
- Intrinsic Activity Alpha 2A [1]: 0.66
- Intrinsic Activity Alpha 2B [2]: 0.99
- Intrinsic Activity Alpha 2C [3]: 0.83

Compound: CC(c1ccccc1)c1c[nH]c(=S)[nH]1 (stereo not drawn) [Compound 4, 4-(1-phenyl-ethyl)-1,3-dihydro-imidazole-2-thione]
- Intrinsic Activity Alpha 2B [2]: 1.11
